Measured values published in patent US20240158446A1, “CYCLIC COMPOUND HAVING SELECTIVE INHIBITORY ACTION ON KRAS OVER HRAS AND NRAS” (CHUGAI SEIYAKU KABUSHIKI KAISHA, priority 2021, published 2024).
Where two headings read alike, the source gives them in different places.

Tests used:
[1] = biological target: GDP-bound NRAS wild-type protein (Homo sapiens, UniProt P01111); experiment: Binding to NRAS by surface plasmon resonance (SPR), Single Cycle Kinetics; conditions: SPR; for NRAS/KRAS (ratio of KD value for NRAS to KD value for KRAS): GDP-bound NRAS wild-type protein vs GDP-bound KRAS wild-type protein
Sequence of GDP-bound NRAS wild-type protein (P01111 whole entry): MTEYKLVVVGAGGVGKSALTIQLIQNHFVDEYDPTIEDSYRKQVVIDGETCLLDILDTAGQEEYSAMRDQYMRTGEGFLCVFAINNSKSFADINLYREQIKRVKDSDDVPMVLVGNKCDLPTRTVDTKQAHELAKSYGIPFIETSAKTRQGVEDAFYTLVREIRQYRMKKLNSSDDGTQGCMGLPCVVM

[2] = biological target: GDP-bound HRAS wild-type protein (Homo sapiens, UniProt P01112); experiment: Binding to HRAS by surface plasmon resonance (SPR), Single Cycle Kinetics; conditions: SPR; for HRAS/KRAS (ratio of KD value for HRAS to KD value for KRAS): GDP-bound HRAS wild-type protein vs GDP-bound KRAS wild-type protein
Sequence of GDP-bound HRAS wild-type protein (P01112 whole entry): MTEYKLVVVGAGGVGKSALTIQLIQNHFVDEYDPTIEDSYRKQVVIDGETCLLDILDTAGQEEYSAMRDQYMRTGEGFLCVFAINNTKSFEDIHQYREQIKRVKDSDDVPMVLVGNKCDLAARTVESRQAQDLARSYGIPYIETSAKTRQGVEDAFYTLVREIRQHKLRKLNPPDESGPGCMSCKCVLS

[3] = system: human lung cancer strain NCI-H441; conditions: read-out: NCI-H441 cell proliferation inhibitory activity, 50% proliferation inhibitory concentration (IC50 value); NCI-H441, four days, CellTiter-Glo;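 further: cell proliferation inhibition after four days measured by CellTiter-Glo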
[4] = biological target: GDP-bound KRAS wild-type protein (Homo sapiens, UniProt P01116); experiment: Binding to KRAS by surface plasmon resonance (SPR), Single Cycle Kinetics; conditions: SPR, Single Cycle Kinetics
Sequence of GDP-bound KRAS wild-type protein (P01116 whole entry): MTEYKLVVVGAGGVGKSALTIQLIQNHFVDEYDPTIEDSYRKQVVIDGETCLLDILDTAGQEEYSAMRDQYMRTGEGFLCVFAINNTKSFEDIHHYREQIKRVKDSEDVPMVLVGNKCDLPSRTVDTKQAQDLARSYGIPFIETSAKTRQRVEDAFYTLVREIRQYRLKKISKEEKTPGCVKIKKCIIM

[5] = 1:1 binding model, read-out: KD value with respect to GDP-bound KRAS wild-type protein
[6] = GDP-bound KRAS wild-type protein, read-out: KRAS KD

Compound	NRAS/KRAS (ratio of KD value for NRAS to KD value for KRAS) [1]	ratio of the KD value with respect to GDP-bound NRAS wild-type protein to the KD value with respect to KRAS [1]	HRAS/KRAS (ratio of KD value for HRAS to KD value for KRAS) [2]	ratio of the KD value with respect to GDP-bound HRAS wild-type protein to the KD value with respect to KRAS [2]	IC50 [3] [pM]	Kd [4, 5] [pM]	Kd [4, 6] [pM]
CCO[C@@H]1C[C@H]2C(=O)NC3(CC(C)(C)C3)C(=O)N(C)[C@@H](C3CCCC3)C(=O)N(C)[C@H](C(=O)N3CCCCC3)CC(=O)N(C)[C@H]3CCCCc4ccc(cc4)C[C@@H](C(=O)N(C)CC(=O)N[C@@H](CCc4ccc(C(F)(F)F)c(OC)c4)C(=O)N2C1)N1CC/C=C\C[C@@H](C1=O)N(C)C(=O)CN(C)C(=O)[C@H]([C@@H](C)CC)NC3=O [PP3093, (1S,7S,11R,13S,19S,22S,26S,29S,35S,37Z)-19-cyclopentyl-11-ethoxy-7-[2-[3-methoxy-4-(trifluoromethyl)phenyl]ethyl]-3,3′,3′,18,21,25,31,34-octamethyl-29-[(1S)-1-methylpropyl]-22-(piperidine-1-carbonyl)spiro[3,6,9,15,18,21,25,28,31,34,41-undecazapentacyclo[24.15.9.2^43,46.1^35,41.0^9,13]tripentaconta-37,43(52),44,46(51)-tetraene-16,1′-cyclobutane]-2,5,8,14,17,20,24,27,30,33,53-undecone]	A (a compound having 10 or more and less than 20 is denoted as A)	A (a compound having 10 or more and less than 20 is denoted as A)	A (a compound having 10 or more and less than 20 is denoted as A)	A (a compound having 10 or more and less than 20 is denoted as A)	3200	97	97
CCCO[C@@H]1C[C@H]2C(=O)NC3(CC(C)(C)C3)C(=O)N(C)[C@@H](C3CCCC3)C(=O)N(C)[C@H](C(=O)N3CCCC3)CC(=O)N(C)[C@H]3CCCCc4ccc(cc4)C[C@@H](C(=O)N(C)CC(=O)N[C@@H](CCc4ccc(C(F)(F)F)c(OC)c4)C(=O)N2C1)N1CC/C=C\C[C@@H](C1=O)N(C)C(=O)CN(C)C(=O)[C@H]([C@@H](C)CC)NC3=O [PP3094, (1S,7S,11R,13S,19S,22S,26S,29S,35S,37Z)-19-cyclopentyl-7-[2-[3-methoxy-4-(trifluoromethyl)phenyl]ethyl]-3,3′,3′,18,21,25,31,34-octamethyl-29-[(1S)-1-methylpropyl]-11-propoxy-22-(pyrrolidine-1-carbonyl)spiro[3,6,9,15,18,21,25,28,31,34,41-undecazapentacyclo[24.15.9.2^43,46.1^35,41.0^9,13]tripentaconta-37,43(52),44,46(51)-tetraene-16,1′-cyclobutane]-2,5,8,14,17,20,24,27,30,33,53-undecone]	A (a compound having 10 or more and less than 20 is denoted as A)	A (a compound having 10 or more and less than 20 is denoted as A)	B (a compound having 3 or more and less than 10 is denoted as B)	B (a compound having 3 or more and less than 10 is denoted as B)	2200	81	81
CCC[C@H]1C(=O)N[C@@H]([C@@H](C)CC)C(=O)N(C2CC2)CC(=O)N(C)[C@H]2C/C=C\CCN(C2=O)[C@@H](Cc2ccc(C(F)(F)F)cc2)C(=O)N(C)CC(=O)N[C@@H](CCc2ccc(C(F)(F)F)c(OC)c2)C(=O)N2C[C@H](OCC)C[C@H]2C(=O)N(C)C2(CCC2)C(=O)N(C)[C@@H](C2CCCC2)C(=O)N(C)[C@H](C(=O)N2CCCCC2)CC(=O)N1C [PP3095, (2S,8S,12R,14S,20S,23S,27S,30S,36S,38Z)-20-cyclopentyl-32-cyclopropyl-12-ethoxy-8-[2-[3-methoxy-4-(trifluoromethyl)phenyl]ethyl]-4,16,19,22,26,35-hexamethyl-30-[(1S)-1-methylpropyl]-23-(piperidine-1-carbonyl)-27-propyl-2-[[4-(trifluoromethyl)phenyl]methyl]spiro[1,4,7,10,16,19,22,26,29,32,35-undecazatricyclo[34.5.1.0^10,14]dotetracont-38-ene-17,1′-cyclobutane]-3,6,9,15,18,21,25,28,31,34,42-undecone]	A (a compound having 10 or more and less than 20 is denoted as A)	A (a compound having 10 or more and less than 20 is denoted as A)	A (a compound having 10 or more and less than 20 is denoted as A)	A (a compound having 10 or more and less than 20 is denoted as A)	33700	670	670
CCC[C@H]1C(=O)N[C@@H]([C@@H](C)CC)C(=O)N(C2CC2)CC(=O)N(C)[C@H]2C/C=C\CCN(C2=O)[C@@H](Cc2ccc(C(F)(F)F)cc2)C(=O)N(C)CC(=O)N[C@@H](CCc2ccc(C(F)(F)F)c(OC)c2)C(=O)N2C[C@H](OCC)C[C@H]2C(=O)N(C)C2(CCC2)C(=O)N(C)[C@@H](C2CCCC2)C(=O)N(C)[C@H](C(=O)N2CCCC2)CC(=O)N1C [PP3097]	A (a compound having 10 or more and less than 20 is denoted as A)	A (a compound having 10 or more and less than 20 is denoted as A)	A (a compound having 10 or more and less than 20 is denoted as A)	A (a compound having 10 or more and less than 20 is denoted as A)	5400	380	380
CCC[C@H]1C(=O)N[C@@H]([C@@H](C)CC)C(=O)N(C2CC2)CC(=O)N(C)[C@H]2C/C=C\CCN(C2=O)[C@@H](Cc2ccc(C)cc2)C(=O)N(C)CC(=O)N[C@@H](CCc2ccc(C(F)(F)F)c(OC)c2)C(=O)N2C[C@H](OCC)C[C@H]2C(=O)N(C)C2(CCC2)C(=O)N(C)[C@@H](C2CCCC2)C(=O)N(C)[C@H](C(=O)N2CCCC2)CC(=O)N1C [PP3098, (2S,8S,12R,14S,20S,23S,27S,30S,36S,38Z)-20-cyclopentyl-32-cyclopropyl-12-ethoxy-8-[2-[3-methoxy-4-(trifluoromethyl)phenyl]ethyl]-4,16,19,22,26,35-hexamethyl-30-[(1S)-1-methylpropyl]-27-propyl-2-(p-tolylmethyl)-23-(pyrrolidine-1-carbonyl)spiro[1,4,7,10,16,19,22,26,29,32,35-undecazatricyclo[34.5.1.0^10,14]dotetracont-38-ene-17,1′-cyclobutane]-3,6,9,15,18,21,25,28,31,34,42-undecone]	A (a compound having 10 or more and less than 20 is denoted as A)	A (a compound having 10 or more and less than 20 is denoted as A)	A (a compound having 10 or more and less than 20 is denoted as A)	A (a compound having 10 or more and less than 20 is denoted as A)	4700	240	240
CCC[C@H]1C(=O)N[C@@H]([C@@H](C)CC)C(=O)N2CCC[C@H]2C(=O)N(C)[C@H]2C/C=C\CCN(C2=O)[C@@H](Cc2ccc(C(F)(F)F)cc2)C(=O)N(C)CC(=O)N[C@@H](CCc2ccc(C(F)(F)F)c(OC)c2)C(=O)N2C[C@H](OCC)C[C@H]2C(=O)N(C)C2(CCC2)C(=O)N(C)[C@@H](C2CCCC2)C(=O)N(C)[C@H](C(=O)N2CCCCC2)CC(=O)N1C [PP3099]	A (a compound having 10 or more and less than 20 is denoted as A)	A (a compound having 10 or more and less than 20 is denoted as A)	A (a compound having 10 or more and less than 20 is denoted as A)	A (a compound having 10 or more and less than 20 is denoted as A)	13300	610	610
